Results published in US20210101881A1 (Ancureall Pharmaceutical (Shanghai) Co., Ltd., priority 2018, published 2021).

Experiments:
Assay in all cases: Growth inhibition of CDK9-positive tumor cell line in vitro
Assay type in all cases: cell-based
KYSE70 = settings: KYSE-70, Human esophageal cancer, read-out: Inhibitory activity (IC50) on growth in vitro, KYSE70
Experimental: (§1) Measurement of the Inhibitory Activity of the Present Compound on the Growth of Various Types of CDK9-Positive Tumor Cell Lines In Vitro
(§2) The inventors selected representative CDK9-positive tumor cell lines for further determination of the compound activity. All cell lines used came from ATCC, JCRB, DSMZ and Chinese Academy of Sciences Cell Bank (ZK). Cell culture condition and method were based on the requirements of each cell line. No more than 3 passages were carried out in each culture in vitro. Monoclonal purification and STR identification of the cell line were conducted if necessary.

NCI-H1781 = settings: Human lung cancer, read-out: Inhibitory activity (IC50) on growth in vitro, NCI-H1781
Experimental: as §1, §2

8305C = settings: Human thyroid cancer, read-out: Inhibitory activity (IC50) on growth in vitro, 8305C
Experimental: as §1, §2

CAL-120 = settings: Human breast cancer, read-out: Inhibitory activity (IC50) on growth in vitro, CAL-120
Experimental: as §1, §2

LN229 = settings: LN-229, Human glioma, read-out: Inhibitory activity (IC50) on growth in vitro, LN229
Experimental: as §1, §2

NCI-H358 = settings: Human lung cancer, read-out: Inhibitory activity (IC50) on growth in vitro, NCI-H358
Experimental: as §1, §2

BT-474 = settings: Human breast cancer, read-out: Inhibitory activity (IC50) on growth in vitro, BT-474
Experimental: as §1, §2

NCI-N87 = settings: Human stomach cancer, read-out: Inhibitory activity (IC50) on growth in vitro, NCI-N87
Experimental: as §1, §2

HO8910PM = settings: Human ovarian cancer, read-out: Inhibitory activity (IC50) on growth in vitro, HO8910PM
Experimental: as §1, §2

DU-145 = settings: Human prostate cancer, read-out: Inhibitory activity (IC50) on growth in vitro, DU-145
Experimental: as §1, §2

MX-1 = settings: MX1, Human breast cancer, read-out: Inhibitory activity (IC50) on growth in vitro, MX-1
Experimental: as §1, §2

BT-549 = settings: Human breast cancer, read-out: Inhibitory activity (IC50) on growth in vitro, BT-549
Experimental: as §1, §2

HuCCT-1 = settings: Human cholangiocarcinoma, read-out: Inhibitory activity (IC50) on growth in vitro, HuCCT-1
Experimental: as §1, §2

CA Ski = settings: Human cervical cancer, read-out: Inhibitory activity (IC50) on growth in vitro, CA Ski
Experimental: as §1, §2

NCI-H1703 = settings: Human lung cancer, read-out: Inhibitory activity (IC50) on growth in vitro, NCI-H1703
Experimental: as §1, §2

Kasumi-1 = settings: Human acute myeloid leukemia, read-out: Inhibitory activity (IC50) on growth in vitro, Kasumi-1
Experimental: as §1, §2

NCI-H1975 = settings: Human lung cancer, read-out: Inhibitory activity (IC50) on growth in vitro, NCI-H1975
Experimental: as §1, §2

JIMT-1 = settings: Human breast cancer, read-out: Inhibitory activity (IC50) on growth in vitro, JIMT-1
Experimental: as §1, §2

B-CPAP = settings: BCPAP, Human thyroid cancer, read-out: Inhibitory activity (IC50) on growth in vitro, B-CPAP
Experimental: as §1, §2

MDA-MB-453 = settings: Human breast cancer, read-out: Inhibitory activity (IC50) on growth in vitro, MDA-MB-453
Experimental: as §1, §2

NCI-H1993 = settings: Human lung cancer, read-out: Inhibitory activity (IC50) on growth in vitro, NCI-H1993
Experimental: as §1, §2

AN3-CA = settings: Human endometrial cancer, read-out: Inhibitory activity (IC50) on growth in vitro, AN3-CA
Description: Test Example 3. Measurement of the Inhibitory Activity of the Present Compound on the Growth of Various Types of CDK9-Positive Tumor Cell Lines In Vitro
as §2, with “Tumor cell line is an effective cell model for studying the inhibitory activity of a drug on tumor growth in vitro. The” for “The”
Drug treatment, MTT assay and IC50 calculation were performed in accordance with Test Example 1.

| IC50 (KYSE70) [nM] | IC50 (NCI-H1781) [nM] | IC50 (8305C) [nM] | IC50 (CAL-120) [nM] | IC50 (LN229) [nM] | IC50 (NCI-H358) [nM] | IC50 (BT-474) [nM] | IC50 (NCI-N87) [nM] | IC50 (HO8910PM) [nM] | IC50 (DU-145) [nM] | IC50 (MX-1) [nM] | IC50 (BT-549) [nM] | IC50 (HuCCT-1) [nM] | IC50 (CA Ski) [nM] | IC50 (NCI-H1703) [nM] | IC50 (Kasumi-1) [nM] | IC50 (NCI-H1975) [nM] | IC50 (JIMT-1) [nM] | IC50 (B-CPAP) [nM] | SMILES | IC50 (MDA-MB-453) [nM] | further results |
| --- | --- | --- | --- | --- | --- | --- | --- | --- | --- | --- | --- | --- | --- | --- | --- | --- | --- | --- | --- | --- | --- |
| 100 to 1000 | 10 to 100 | 10 to 100 | 1 to 10 | 100 to 1000 | 100 to 1000 | 10 to 100 | 100 to 1000 | 10 to 100 | 10 to 100 | 1 to 10 | 10 to 100 | 100 to 1000 | 10 to 100 | 10 to 100 | 1 to 10 | 100 to 1000 | 10 to 100 | 10 to 100 | Cc1cc(Nc2ncc(Cl)c(-n3cc(C(N)=O)c4ccccc43)n2)ccc1N1CCN(C(C)C)CC1 [Compound 60, 1-{5-chloro-2-[4-(4-isopropyl-piperazin-1-yl)-3-methyl-phenylamino]-pyrimidin-4-yl}-1H-indole-3-carboxamide] |  |  |
| 1 to 10 | < 1 | < 1 | < 1 | < 1 | 1 to 10 | < 1 | 1 to 10 | < 1 | < 1 | < 1 | < 1 | 1 to 10 | < 1 | < 1 | < 1 | 1 to 10 | < 1 | < 1 | CC(C)N1CCN(c2cccc(Nc3ncc(F)c(-n4cc(C(N)=O)c5ccccc54)n3)c2)CC1 [Compound 144, 1-{5-fluoro-2-[3-(4-isopropyl-piperazin-1-yl)-phenylamino]-pyrimidin-4-yl}-1H-indole-3-carboxamide] | < 1 | IC50 (NCI-H1993): 1 to 10 nM; IC50 (AN3-CA): < 1 nM |

The next lines start with the compound.

| SMILES | IC50 (KYSE70) [nM] | IC50 (NCI-H1781) [nM] | IC50 (8305C) [nM] | IC50 (CAL-120) [nM] | IC50 (LN229) [nM] | IC50 (NCI-H358) [nM] | IC50 (BT-474) [nM] | IC50 (NCI-N87) [nM] | IC50 (HO8910PM) [nM] | IC50 (DU-145) [nM] | IC50 (MX-1) [nM] | IC50 (BT-549) [nM] | IC50 (HuCCT-1) [nM] | IC50 (CA Ski) [nM] | IC50 (NCI-H1703) [nM] | IC50 (Kasumi-1) [nM] | IC50 (NCI-H1975) [nM] | IC50 (JIMT-1) [nM] | IC50 (B-CPAP) [nM] | IC50 (MDA-MB-453) [nM] | further results |
| --- | --- | --- | --- | --- | --- | --- | --- | --- | --- | --- | --- | --- | --- | --- | --- | --- | --- | --- | --- | --- | --- |
| NC(=O)c1cn(-c2nc(Nc3cccc(N4CCN(C5CCOCC5)CC4)c3)ncc2F)c2ccccc12 [Compound 140, 1-(5-fluoro-2-{3-[4-(tetrahydro-pyran-4-yl)-piperazin-1-yl]-phenylamino}-pyrimidin-4-yl)-1H-indole-3-carboxamide] | 1 to 10 | < 1 | < 1 | < 1 | 1 to 10 | 1 to 10 | < 1 | 1 to 10 | < 1 | < 1 | < 1 | < 1 | 1 to 10 | < 1 | < 1 | 1 to 10 | 1 to 10 | < 1 | < 1 | < 1 | IC50 (NCI-H1993): 1 to 10 nM; IC50 (AN3-CA): < 1 nM |
| CCN1CCN(c2cccc(Nc3ncc(F)c(-n4cc(C(N)=O)c5cc(OC)ccc54)n3)c2)CC1 [Compound 152, 1-{2-[3-(4-ethyl-piperazin-1-yl)-phenylamino]-5-fluoro-pyrimidin-4-yl}-5-methoxy-1H-indole-3-carboxamide] | 1 to 10 | < 1 | 1 to 10 | < 1 | 1 to 10 | 1 to 10 | < 1 | 1 to 10 | < 1 | 1 to 10 | < 1 | < 1 | 1 to 10 | < 1 | < 1 | 1 to 10 | 1 to 10 | < 1 | 1 to 10 | < 1 | IC50 (NCI-H1993): 1 to 10 nM; IC50 (AN3-CA): < 1 nM |
| CCN1CCN(c2cccc(Nc3ncc(F)c(-n4cc(C(N)=O)c5cc(F)ccc54)n3)c2)CC1 [Compound 161, 1-{2-[3-(4-ethyl-piperazin-1-yl)-phenylamino]-5-fluoro-pyrimidin-4-yl}-5-fluoro-1H-indole-3-carboxamide] | 1 to 10 | < 1 | 1 to 10 | < 1 | 1 to 10 | 1 to 10 | < 1 | 1 to 10 | < 1 | 1 to 10 | < 1 | < 1 | 1 to 10 | < 1 | < 1 | 1 to 10 | 1 to 10 | < 1 | 1 to 10 | < 1 | IC50 (NCI-H1993): 10 to 100 nM |
